Data: PMC11931052, “Efficacy of dispirotripiperazine PDSTP in a golden Syrian hamster model of SARS-CoV-2 infection” (Frontiers in Microbiology, 2025)

Tested on: SARS-CoV-2 BA.4/5 variant
Type: cell-based
Conditions: Calu-3 cells; PDSTP 20 and 4 μM; plaque assay

Cc1nc(N2CC[N+]3(CC2)CC[N+]2(CCNCC2)CC3)c([N+](=O)[O-])c(N2CC[N+]3(CC2)CC[N+]2(CCNCC2)CC3)n1.Cl.Cl.O.O.O.O.O.O.O.O.O.[Cl-].[Cl-].[Cl-].[Cl-] [PDSTP, 3,3′-(2-methyl-5-nitropyrimidine-4,6-diyl)bis-3,12-diaza-6,9-diazonia-dispiro[5.2.5.2]hexadecane tetrachloride dihydrochloride nonahydrate]
Effect on viral titers, BA.4/5 variant: strongly reduce viral titers
